Legend:
[1] = system: 3T3-L1 cells; assay: adipogenesis assay (formation of oil droplets); type: cell-based, mouse; parameters: key: +: The analogues that completely inhibited the formation of oil droplets in cells were scored to be adipogenesis-inhibiting analogues; settings: formation of oil droplets in cells
Protocol: The adipogenesis assay was performed as described (Choi et al., 2003).

[2] = system: endogenous SREBPs; assay: SREBP activation assay (pSRE-Luc luciferase reporter) in CHO-K1 cells; type: cell-based, Chinese hamster
Protocol: To confirm that fatostatin impairs the function of SREBPs, the ability of endogenous SREBPs to activate transcription of an SREBP-responsive reporter gene was measured in CHO-K1 cells in the presence or absence of fatostatin (FIG. 18A).
Luciferase reporter assay. On day 0, CHO-K1 cells were plated out onto a 96-well plate in medium A (a 1:1 mixture of Ham's F-12 medium and Dulbecco's modified Eagle's medium, with 5% fetal bovine serum, 100 units/mL penicillin, and 100 μg/mL streptomycin sulfate). On day 2, the cells were transiently co-transfected with pSRE-Luc (an SRE-1-driven luciferase reporter construct) (Hua et al., 1995) and pAc-β-gal (β-gal reporter in which the expression of β-gal is controlled by an actin promoter), using Lipofectamine reagent (Invitrogen). After incubation for 5 h, the cells were washed with phosphate-buffered saline (PBS), and then incubated, in the absence or presence of fatostatin, in medium B (a 1:1 mixture of Ham's F-12 medium and Dulbecco's modified Eagle's medium, with 5% lipid-depleted serum, 100 units/mL penicillin, 100 μg/mL streptomycin sulfate, […], and 50 mM sodium mevalonate). After 20 h of incubation, the cells in each well were lysed, and aliquots were used to measure luciferase and β-galactosidase activities. Luciferase activity was normalized by the activity of β-galactosidase. For overexpression of the N-terminal matured form of SREBP-1c, pCMV-SREBP-1c(1-436) was co-transfected with pSRE-Luc and pAc-β-gal.
Standard SREBP activation assays were performed on the exemplary compounds identified in Table 4 as per the method for Fatostatin A in Example 1. The ability of endogenous SREBPs to activate transcription of an SREBP-responsive reporter gene was measured in the presence or absence of compounds 45-55 and 19 (FIG. 28), compounds 56-61 and 19 (FIG. 29) and compounds 62-66 (FIG. 30) at 5 μM in CHOK1 cells. […] The inhibitory concentrations of compounds 53 (FIG. 31) and compounds 58 and 61 (FIG. 32) were determined.

[3] = system: endogenous SREBPs; assay: Luciferase reporter assay (pSRE-Luc, normalized by β-gal) in HEK293 cells; type: cell-based, human; parameters: Luc/Gal: dose or concentration left out as unconfirmed
Protocol: On day 0, HEK293 cells were plated out in triplicate at a density of 5×10^3/well onto a 96-well plate in a Dulbecco's modified Eagle's medium with 10% fetal bovine serum, 100 units/mL penicillin, and 100 μg/mL streptomycin sulfate. On day 2, the cells were transiently co-transfected with the following plasmids by using Lipofectamine reagent (Invitrogen): 0.4 μg/well pSRE-Luc (an SRE-1-driven luciferase reporter construct; Hua et al., 1995 J Biol Chem 270, 29422-7), and 0.1 μg/well a b-gal reporter in which the expression of β-gal is controlled by an actin promoter in a final volume of […]. After incubation for 5 hrs at 37° C., the cells were washed with phosphate-buffered saline and then incubated in 100 μl of Dulbecco's modified Eagle's medium with 10% lipid-depleted serum, […] penicillin, and 100 μg/mL streptomycin sulfate in the absence or presence of fatostatin A. After 20 hrs of incubation, the cells in each well were lysed with 20 μL of 1× Reporter Lysis Buffer (Promega), and aliquots were used for measurement of luciferase (10 μL) and β-galactosidase (10 μL) activities. For luciferase assay, photon production was detected as counts per second in a Wallac 1420 ARVOsx multilabel counter (PerkinElmer). For β-galactosidase assays, hydrolysis of O-nitrophenyl-β-D-galactosidase was measured after incubation for 0.5 h at 37° C. by a microplate reader at the wave length of 405 nm (Tecan). The luciferase activity (counts per second) was normalized by the activity of β-galactosidase (OD units). For overexpression of the N-terminal matured form of SREBP-1c, pCMV-SREBP-1c (1-436) was co-transfected with pSRE-Luc. pSRE-Luc and pCMV-SREBP-1c (1-436) were provided by J. L. Goldstein (University of Texas Southwestern Medical Center). […]

[4] = entries 1, 19-34 (FIG. 16), None = 15.0759

CCCc1cc(-c2nc(-c3ccc(C)cc3)cs2)ccn1 [Compound 1, 2-propyl-4-(4-p-tolylthiazol-2-yl)pyridine]
Inhibition of adipogenesis [1]: +
activation of the SRE luciferase reporter gene by endogenous SREBPs ([2]; CHO-K1 cells, lipid-free serum): decreased activation of the reporter gene
activation of the SRE-controlled luciferase reporter gene by endogenous SREBPs ([3]; HEK293 cells, lipid-free serum, varied concentrations): decreased in a concentration dependent manner
ability of exogenously expressed mature form of SREBP-1 to activate the reporter gene ([3]; HEK293 cells, pCMV-SREBP-1c + pSRE-Luc): failed to impair
Luc/Gal [3, 4]: 7.5537
Luc/Gal ([3]; entries 1, 35-39 (FIG. 17), None = 18): 9.414
Luc/Gal ([3]; entries 1, 40-44 (FIG. 17), None = 8.2181): 3.4437
Luc/Gal ([3]; entries 1-18 (FIG. 15), none = 9.4426): 6.2297

CCCc1cc(-c2nc(-c3ccc(NS(C)(=O)=O)cc3)cs2)ccn1 [Compound 19, N-(4-(2-(2-propylpyridin-4-yl)thiazol-4-yl)phenyl)methanesulfonamide]
Inhibition of adipogenesis [1]: +
inhibition at 5 µM ([2]; Cricetulus griseus, CHO-K1, 5 μM in CHOK1 cells): ~45%
Luc/Gal [3, 4]: 4.1981

— patent publication US9713613B2, “Methods and compositions for the treatment of cancer and related hyperproliferative disorders” (priority 2007, dated 2017)
